Reference: patent publication US3983105A, “Penicillins” (Bayer Aktiengesellschaft, priority 1971, dated 1976)
Where two headings read alike, the source gives them in different places.

Assays:
Proteus morganii = assay: MIC, test tube serial dilution, Proteus morganii; type: cell-based
Proteus rettgeri = assay: MIC, test tube serial dilution, Proteus rettgeri; type: cell-based
Proteus mirabilis = assay: MIC, test tube serial dilution, Proteus mirabilis; type: cell-based
Pseudomonas aeruginosa = assay: MIC, test tube serial dilution, Pseudomonas aeruginosa; type: cell-based
Streptococcus faecalis = assay: MIC, test tube serial dilution, Streptococcus faecalis; type: cell-based
Staphylococcus aureus = assay: MIC, test tube serial dilution, Staphylococcus aureus; type: cell-based
Klebsiella-Aerobacter [1] = assay: MIC, test tube serial dilution, Klebsiella-Aerobacter; type: cell-based
Escherichia coli = assay: MIC, test tube serial dilution, Escherichia coli; type: cell-based
Haemophilus influenzae = assay: MIC, test tube serial dilution, Haemophilus influenzae; type: cell-based
Proteus vulgaris = assay: MIC, test tube serial dilution, Proteus vulgaris; type: cell-based
Providencia = assay: MIC, test tube serial dilution, Providencia; type: cell-based
Serratia marcescens = assay: MIC, test tube serial dilution, Serratia marcescens; type: cell-based
Klebsiella-Aerobacter [2] = details: in vivo; cited from earlier work
[3] = strain 1756 (BRL 1 756), 24 hours, 37°C

## CC1(C)S[C@@H]2[C@H](NC(=O)[C@H](NC(=O)N3CCN(S(C)(=O)=O)C3=O)c3ccccc3)C(=O)N2[C@H]1C(=O)O [Example 4, Sodium D(-)-α-[(3-methylsulphonyl-imidazolidin-2-on-1-yl)-carbonylamino]-benzylpencillin]
Proteus morganii; Sp.
  MIC: 3 U/ml
Proteus morganii; strain 1 102
  MIC: 200 U/ml
Proteus rettgeri; Sp.
  MIC: 0.8 U/ml
Proteus rettgeri; strain 1 050
  MIC: > 400 U/ml
Proteus rettgeri; strain 824
  MIC: > 400 U/ml
Proteus mirabilis; Sp.
  MIC: 1.6 U/ml
Proteus mirabilis; strain 1 235
  MIC: 1.6 U/ml
Proteus mirabilis; strain 605
  MIC: 3 U/ml
Proteus mirabilis; strain G.
  MIC: < 0.4 U/ml
Pseudomonas aeruginosa; strain A
  MIC: 12.5 U/ml
Pseudomonas aeruginosa; strain Bonn, 24 hours, 37°C
  MIC: 16 - 32 U/ml
Pseudomonas aeruginosa; strain E 27 500
  MIC: 12.5 U/ml
Pseudomonas aeruginosa; strain V 10 797
  MIC: 12.5 U/ml
Pseudomonas aeruginosa; strain V 10 818
  MIC: 25 U/ml
Pseudomonas aeruginosa; strain V 10 887
  MIC: 12.5 U/ml
Pseudomonas aeruginosa; strain V 10 900
  MIC: 12.5 U/ml
Pseudomonas aeruginosa; strain Walter, 24 hours, 37°C
  MIC: 4-16 U/ml
Streptococcus faecalis; ATCC 9790, 24 hours, 37°C
  MIC: 16-32 U/ml
Streptococcus faecalis; strain 8 698
  MIC: 1.6 U/ml
Streptococcus faecalis; strain 8 709
  MIC: 12.5 U/ml
Streptococcus faecalis; strain 8 711
  MIC: 3 U/ml
Staphylococcus aureus
  MIC: 200 U/ml
Staphylococcus aureus; [3]
  MIC: 64-256 U/ml
Staphylococcus aureus; strain P 209
  MIC: < 0.8 U/ml
Staphylococcus aureus; strain SG 511
  MIC: < 0.8 U/ml
Klebsiella-Aerobacter [1]
  MIC: < 0.8 U/ml
Klebsiella-Aerobacter [1]; aerogenes 418
  MIC: 3 U/ml
Klebsiella-Aerobacter [1]; strain 62
  MIC: 1.6 U/ml
Klebsiella-Aerobacter [1]; strain 63, 24 hours, 37°C
  MIC: 4 - 16 U/ml
Klebsiella-Aerobacter [1]; strain 69
  MIC: 1.6 U/ml
Klebsiella-Aerobacter [1]; strain 70
  MIC: 3 U/ml
Klebsiella-Aerobacter [1]; strain 75
  MIC: 6 U/ml
Klebsiella-Aerobacter [1]; strain 1852
  MIC: > 400 U/ml
Klebsiella-Aerobacter [1]; strain 1871
  MIC: 6 U/ml
Klebsiella-Aerobacter [1]; strain K 10, 24 hours, 37°C
  MIC: 4 - 16 U/ml
Escherichia coli; strain 26/6
  MIC: < 0.8 U/ml
Escherichia coli; strain 55 B 5
  MIC: < 0.8 U/ml
Escherichia coli; strain 183/58, 24 hours, 37°C
  MIC: 1 - 4 U/ml
Escherichia coli; strain 1465
  MIC: > 400 U/ml
Escherichia coli; strain A 261, 24 hours, 37°C
  MIC: 32 - 64 U/ml
Escherichia coli; strain B
  MIC: < 0.8 U/ml
Escherichia coli; strain B 94
  MIC: < 0.8 U/ml
Escherichia coli; strain C 165, 24 hours, 37°C
  MIC: 1 - 4 U/ml
Escherichia coli; strain N
  MIC: 1.6 U/ml
Escherichia coli; strain S
  MIC: 32 U/ml
Escherichia coli; strain T 7
  MIC: > 400 U/ml
Escherichia coli; strain T 20/2
  MIC: > 400 U/ml
Haemophilus influenzae; strain 2 684
  MIC: 0.1 U/ml
Haemophilus influenzae; strain 2 689
  MIC: 0.25 U/ml
Haemophilus influenzae; strain 2 718
  MIC: 0.1 U/ml
Haemophilus influenzae; strain 2 786
  MIC: 0.06 U/ml
Haemophilus influenzae; strain 2 788
  MIC: 0.5 U/ml
Proteus vulgaris; strain 3 400
  MIC: 6 U/ml
Proteus vulgaris; strain 1017, 24 hours, 37°C
  MIC: 1.6 U/ml
Providencia; strain 930
  MIC: < 0.8 U/ml
Providencia; strain 933
  MIC: 12.5 U/ml
Providencia; strain 945
  MIC: < 0.8 U/ml
Serratia marcescens; strain 2
  MIC: 1.6 U/ml
Serratia marcescens; strain 3
  MIC: 12.5 U/ml
Serratia marcescens; strain 4
  MIC: 1.6 U/ml
Serratia marcescens; strain 6
  MIC: 1.6 U/ml
Serratia marcescens; strain 7
  MIC: 1.6 U/ml
Serratia marcescens; strain 9
  MIC: < 0.8 U/ml
Serratia marcescens; strain 13
  MIC: < 0.8 U/ml
Serratia marcescens; strain K
  MIC: < 0.8 U/ml

## CC1(C)S[C@@H]2[C@H](NC(=O)C(NC(=O)N3CCN(S(C)(=O)=O)C3=O)c3ccc(Cl)cc3)C(=O)N2[C@H]1C(=O)O (stereo partly drawn) [Penicillin No. 2 (Table 3), Sodium D,L-α-[(3-methylsulphonyl-imidazolidin-2-on-1-yl)-carbonylamino]-4-chlorobenzylpenicillin]
Proteus morganii; Table 3, strain 932
  MIC: 8 U/ml
Pseudomonas aeruginosa; Table 3, strain F 41
  MIC: 128 U/ml
Pseudomonas aeruginosa; Table 3, strain Walter
  MIC: 64 U/ml
Streptococcus faecalis; Table 3, ATCC 9790
  MIC: 64 U/ml
Staphylococcus aureus; Table 3, strain 133
  MIC: < 1 U/ml
Staphylococcus aureus; Table 3, strain 1756E
  MIC: 64 U/ml
Klebsiella-Aerobacter [1]; Table 3, strain 63
  MIC: 128 U/ml
Klebsiella-Aerobacter [1]; Table 3, strain K 10
  MIC: 32 U/ml
Escherichia coli; Table 3, strain 14
  MIC: < 1 U/ml
Escherichia coli; Table 3, strain 183/58
  MIC: 4 U/ml
Escherichia coli; Table 3, strain A 261
  MIC: 256 U/ml
Escherichia coli; Table 3, strain C 165
  MIC: 4 U/ml
Proteus vulgaris; Table 3, strain 1017
  MIC: 8 U/ml

## COC(=O)N1CCN(C(=O)NC(C(=O)N[C@@H]2C(=O)N3[C@@H]2SC(C)(C)[C@@H]3C(=O)O)c2ccc(Cl)cc2)C1=O (stereo partly drawn) [Penicillin No. 19 (Table 3), Sodium D,L-α-[(3-methoxycarbonyl-imidazolidin-2-on-1-yl)-carbonylamino]-4-chlorobenzylpenicillin]
Proteus morganii; Table 3, strain 932
  MIC: 4 U/ml
Pseudomonas aeruginosa; Table 3, strain F 41
  MIC: 64 U/ml
Pseudomonas aeruginosa; Table 3, strain Walter
  MIC: 64 U/ml
Streptococcus faecalis; unit assumed
  MIC: 32 µg/mL
Staphylococcus aureus; Table 3, strain 1756E
  MIC: 128 U/ml
Klebsiella-Aerobacter [1]; Table 3, strain 63
  MIC: 4 U/ml
Klebsiella-Aerobacter [1]; Table 3, strain K 10
  MIC: 32 U/ml
Escherichia coli; Table 3, strain 14
  MIC: 4 U/ml
Escherichia coli; Table 3, strain 183/58
  MIC: 16 U/ml
Escherichia coli; Table 3, strain A 261
  MIC: > 256 U/ml
Escherichia coli; Table 3, strain C 165
  MIC: 8 U/ml
Proteus vulgaris; Table 3, strain 1017
  MIC: 32 U/ml

## CC(=O)N1CCN(C(=O)NC(C(=O)N[C@@H]2C(=O)N3[C@@H]2SC(C)(C)[C@@H]3C(=O)O)c2ccc(Cl)cc2)C1=O (stereo partly drawn) [Penicillin No. 7 (Table 3), Sodium D,L-α-[(3-acetylimidazolidin-2-on-1-yl)-carbonyl-amino]-4-chlorobenzylpenicillin]
Proteus morganii; Table 3, strain 932
  MIC: 16 U/ml
Pseudomonas aeruginosa; Table 3, strain F 41
  MIC: 128 U/ml
Pseudomonas aeruginosa; Table 3, strain Walter
  MIC: 64 U/ml
Streptococcus faecalis; Table 3, ATCC 9790
  MIC: 64 U/ml
Staphylococcus aureus; Table 3, strain 133
  MIC: < 1 U/ml
Staphylococcus aureus; Table 3, strain 1756E
  MIC: 64 U/ml
Klebsiella-Aerobacter [1]; Table 3, strain 63
  MIC: 128 U/ml
Klebsiella-Aerobacter [1]; Table 3, strain K 10
  MIC: 32 U/ml
Escherichia coli; Table 3, strain 14
  MIC: 4 U/ml
Escherichia coli; Table 3, strain 183/58
  MIC: 8 U/ml
Escherichia coli; Table 3, strain A 261
  MIC: 512 U/ml
Escherichia coli; Table 3, strain C 165
  MIC: 16 U/ml
Proteus vulgaris; Table 3, strain 1017
  MIC: 32 U/ml

## CC1(C)S[C@@H]2[C@H](NC(=O)[C@H](NC(=O)N3CCN(C=O)C3=O)c3ccccc3)C(=O)N2[C@H]1C(=O)O [Example 20, Sodium D(-)-α-[(3-formyl-imidazolidin-2-on-1-yl)-carbonylamino]-benzylpenicillin]
Proteus morganii; unit assumed
  MIC: 8 µg/mL
Pseudomonas aeruginosa; in µg/mL (unit assumed)
  MIC: 8
Pseudomonas aeruginosa; strain Walter, 24 hours, 37°C
  MIC: 16 U/ml
Streptococcus faecalis; unit assumed
  MIC: 32 µg/mL
Staphylococcus aureus; [3]
  MIC: 128 U/ml
Klebsiella-Aerobacter [1]; in µg/mL (unit assumed)
  MIC: 32
Klebsiella-Aerobacter [1]; strain 63, 24 hours, 37°C
  MIC: 64 U/ml
Escherichia coli; strain 183/58, 24 hours, 37°C
  MIC: 64 U/ml
Escherichia coli; strain A 261, 24 hours, 37°C
  MIC: > 256 U/ml
Proteus vulgaris; strain 1017, 24 hours, 37°C
  MIC: 16 U/ml

## CCOC(=O)NS(=O)(=O)N1CCN(C(=O)N[C@@H](C(=O)N[C@@H]2C(=O)N3[C@@H]2SC(C)(C)[C@@H]3C(=O)O)c2ccccc2)C1=O [Example 22, Sodium D(-)-α-{[3-(ethoxy-carbonyl-amino-sulphonyl)imidazolidin-2-on-1-yl]-carbonylamino}-benzylpenicillin]
Proteus morganii; unit assumed
  MIC: 128 µg/mL
Pseudomonas aeruginosa; in µg/mL (unit assumed)
  MIC: 32
Pseudomonas aeruginosa; strain Bonn, 24 hours, 37°C
  MIC: 16 U/ml
Streptococcus faecalis; unit assumed
  MIC: 32 µg/mL
Staphylococcus aureus; [3]
  MIC: 128 U/ml
Klebsiella-Aerobacter [1]; in µg/mL (unit assumed)
  MIC: 32
Klebsiella-Aerobacter [1]; strain 63, 24 hours, 37°C
  MIC: 64 U/ml
Escherichia coli; strain 183/58, 24 hours, 37°C
  MIC: 8 U/ml
Escherichia coli; strain A 261, 24 hours, 37°C
  MIC: > 256 U/ml
Proteus vulgaris; strain 1017, 24 hours, 37°C
  MIC: 16 U/ml

## CC1(C)S[C@@H]2[C@H](NC(=O)[C@H](N)c3ccccc3)C(=O)N2[C@H]1C(=O)O [Ampicillin, α-aminobenzylpenicillin, reference compound]
Klebsiella-Aerobacter [2]
  effectiveness against infections: not able to combat infections
Pseudomonas aeruginosa; Table 3, strain Walter
  MIC: 200 U/ml
Pseudomonas aeruginosa; strain Bonn, 24 hours, 37°C
  MIC: 200 U/ml
Pseudomonas aeruginosa; strain Walter, 24 hours, 37°C
  MIC: 200 U/ml
Staphylococcus aureus; Table 3, strain 133
  MIC: < 1 U/ml
Klebsiella-Aerobacter [1]; Table 3, strain 63
  MIC: 100-200 U/ml
Klebsiella-Aerobacter [1]; Table 3, strain K 10
  MIC: 100-200 U/ml
Escherichia coli; Table 3, strain 183/58
  MIC: 200 U/ml
Escherichia coli; Table 3, strain A 261
  MIC: > 400 U/ml
Escherichia coli; Table 3, strain C 165
  MIC: 6 U/ml
Escherichia coli; strain 183/58, 24 hours, 37°C
  MIC: 200 U/ml
Escherichia coli; strain A 261, 24 hours, 37°C
  MIC: > 400 U/ml
Proteus vulgaris; Table 3, strain 1017
  MIC: 400 U/ml
Proteus vulgaris; strain 1017, 24 hours, 37°C
  MIC: 400 U/ml
